System: black mold Aspergillus niger (クロカビ)
Assay: Antimicrobial test, black mold (PDA plate, colony diameter)
Assay type: cell-based
Conditions: PDA medium, final concentration 500 mg/L, 25℃, 4 days; for inhibition at 500 µg/mL: 96 h, read-out: inhibition rate

Row | Compound | inhibition rate | inhibition at 500 µg/mL [%]
1 | 2−エトキシ−N−(2−(4−トリフルオロメトキシフェノキシ)エチル)ニコチン酸アミド [化合物番号12] | B (B:70〜89%阻害) | 
2 | CS(=O)(=O)c1ncccc1C(=O)NCCOc1ccc(OC(F)(F)F)cc1 [化合物番号4, 2−メチルスルホニル−N−(2−(4−トリフルオロメトキシフェノキシ)エチル)ニコチン酸アミド] |  | 70 to 89
3 | C[S+]([O-])c1ncccc1C(=O)NCCOc1ccc(OC(F)(F)F)cc1 (centres unmarked) [化合物番号5, 2−メチルスルフィニル−N−(2−(4−トリフルオロメトキシフェノキシ)エチル)ニコチン酸アミド] |  | 50 to 69
4 | O=C(NCCc1ccc(OC(F)(F)F)cc1)c1ccncc1 [化合物番号33, N−(2−(4−トリフルオロメトキシフェニル)エチル)イソニコチン酸アミド] |  | 70 to 89
5 | N−(2−(4−トリフルオロメトキシフェノキシ)エチル)−9−トリフルオロメチル−ジピリド[2,3−b:3’,2’−f]1,4−チアゼピン−6(5H)−オン [化合物番号41] | C (C:50〜69%阻害) | 
